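A five-concentration, 48-hour dose response in 96-well plates underlies each endpoint, interpolated linearly between surrounding concentrations. GI50: concentration for 50% inhibition of growth.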 Activity calls are given as the source filed them. Rule as the data show it: active = GI50 up to about 1.1 µM and inactive = higher.
Assays:
Test in all cases: growth of human tumour cells (NCI), 48 h
[1] = tested on: SK-MEL-28
[2] = tested on: SF-295
[3] = tested on: 786-0
[4] = tested on: KM12
[5] = tested on: SN12C
[6] = tested on: SF-268
[7] = tested on: HCC 2998
[8] = tested on: RXF 393
[9] = tested on: MDA-MB-435
[10] = tested on: MOLT-4
[11] = tested on: SNB-75
[12] = tested on: M14
[13] = tested on: MCF7
[14] = tested on: SF-539
[15] = tested on: U-251
[16] = tested on: TK-10
[17] = tested on: RPMI-8226
[18] = tested on: HL-60
[19] = tested on: SNB-19
[20] = tested on: LOX IMVI
[21] = tested on: MDA-N
[22] = tested on: BT-549
[23] = tested on: OVCAR-8
[24] = tested on: OVCAR-5
[25] = tested on: SW-620
[26] = tested on: SK-OV-3
[27] = tested on: HCT-15
[28] = tested on: COLO 205
[29] = tested on: UACC-62
[30] = tested on: SK-MEL-5
[31] = tested on: OVCAR-3
[32] = tested on: HOP-92
[33] = tested on: A498
[34] = tested on: ACHN
[35] = tested on: K562
[36] = tested on: Hs-578T
[37] = tested on: NCI/ADR-RES
[38] = tested on: NCI-H460
[39] = tested on: UO-31
[40] = tested on: HCT-116
[41] = tested on: UACC-257
[42] = tested on: DU-145
[43] = tested on: PC-3
[44] = tested on: SK-MEL-2
[45] = tested on: T47D
[46] = tested on: EKVX
[47] = tested on: CAKI-1
[48] = tested on: Malme-3M
[49] = tested on: NCI-H522
[50] = tested on: CCRF-CEM
[51] = tested on: A549
[52] = tested on: IGROV-1
[53] = tested on: OVCAR-4
[54] = tested on: HT-29
[55] = tested on: MDA-MB-231
[56] = tested on: NCI-H23
[57] = tested on: NCI-H226

With `O=C(O)C1CCCCC1c1c2ccc(=O)cc-2oc2cc(O)ccc12` (stereo not given) the GI50 [1] was 35.6 µM (inactive), the GI50 [2] was 31.7 µM (inactive) and the GI50 [3] was 32.1 µM (inactive). The GI50 [4] was 19.9 µM (inactive), the GI50 [5] was 41.7 µM (inactive) and the GI50 [6] was 33.7 µM (inactive). The GI50 [7] was 31 µM (inactive), the GI50 [8] was 18.7 µM (inactive) and the GI50 [9] was 13.4 µM (inactive). For the same compound, the GI50 [10] was 23.8 µM (inactive), the GI50 [11] was 25.1 µM (inactive) and the GI50 [12] was 26.1 µM (inactive). The GI50 [13] was 27.6 µM (inactive), the GI50 [14] was 18 µM (inactive) and the GI50 [15] was 30.5 µM (inactive). The GI50 [16] was 52.1 µM (inactive), the GI50 [17] was 23 µM (inactive) and the GI50 [18] was 54.6 µM (inactive). The GI50 [19] was 48.6 µM (inactive), the GI50 [20] was 28.1 µM (inactive) and the GI50 [21] was 21.6 µM (inactive). The GI50 [22] was 47.6 µM (inactive), the GI50 [23] was 26.5 µM (inactive) and the GI50 [24] was 29.4 µM (inactive). For the same compound, the GI50 [25] was 44.9 µM (inactive), the GI50 [26] was 32.1 µM (inactive) and the GI50 [27] was 34.6 µM. The GI50 [28] was 34.1 µM (inactive), the GI50 [29] was 25.9 µM (inactive) and the GI50 [30] was 36.2 µM (inactive). For the same compound, the GI50 [31] was 24.4 µM (inactive), the GI50 [32] was 12 µM (inactive) and the GI50 [33] was 37.8 µM (inactive). For the same compound, the GI50 [34] was 31.8 µM (inactive), the GI50 [35] was 14.1 µM (inactive) and the GI50 [36] was 34.8 µM (inactive). For the same compound, the GI50 [37] was 43.9 µM (inactive), the GI50 [38] was 32.4 µM (inactive) and the GI50 [39] was 61 µM (inactive). For the same compound, the GI50 [40] was 31 µM (inactive), the GI50 [41] was 65.3 µM (inactive) and the GI50 [42] was 26.5 µM (inactive). For the same compound, the GI50 [43] was 28.8 µM (inactive), the GI50 [44] was 29.4 µM (inactive) and the GI50 [45] was 19.1 µM (inactive). The GI50 [46] was 33.5 µM (inactive), the GI50 [47] was 31.8 µM (inactive) and the GI50 [48] was 29.7 µM (inactive). The GI50 [49] was 17.7 µM (inactive), the GI50 [50] was 42.8 µM (inactive) and the GI50 [51] was 38.4 µM (inactive). The GI50 [52] was 12.9 µM (inactive), the GI50 [53] was 23.1 µM (inactive) and the GI50 [54] was 29.3 µM (inactive). For the same compound, the GI50 [55] was 30.8 µM (inactive) and the GI50 [56] was 29.8 µM (inactive).
With `Cc1nc2c(c(N3CCN(C)CC3)n1)Cc1ccccc1-2` the GI50 [2] was 42.4 µM (inactive), the GI50 [3] was 68.2 µM (inactive) and the GI50 [4] was 48 µM (inactive). The GI50 [6] was 62.4 µM (inactive), the GI50 [8] was > 100 µM (inactive) and the GI50 [9] was 64.7 µM (inactive). For the same compound, the GI50 [10] was > 10 µM (inactive), the GI50 [11] was 91.2 µM (inactive) and the GI50 [12] was 50.9 µM (inactive). The GI50 [13] was 70.3 µM (inactive), the GI50 [14] was 84.7 µM (inactive) and the GI50 [15] was 75.3 µM (inactive). For the same compound, the GI50 [16] was 31.4 µM (inactive), the GI50 [17] was > 100 µM (inactive) and the GI50 [18] was 42.1 µM (inactive). For the same compound, the GI50 [19] was 24.9 µM (inactive), the GI50 [21] was 58.5 µM (inactive) and the GI50 [22] was 24.3 µM (inactive). The GI50 [23] was 54 µM (inactive), the GI50 [24] was 80.7 µM (inactive) and the GI50 [25] was 31 µM (inactive). For the same compound, the GI50 [26] was > 100 µM (inactive), the GI50 [27] was 32.5 µM and the GI50 [28] was 37.3 µM (inactive). For the same compound, the GI50 [29] was 42.6 µM (inactive), the GI50 [30] was 51.2 µM (inactive) and the GI50 [32] was 36.7 µM (inactive). For the same compound, the GI50 [57] was 45.8 µM (inactive), the GI50 [34] was 34.2 µM (inactive) and the GI50 [35] was 34.6 µM (inactive). The GI50 [36] was 65 µM (inactive), the GI50 [37] was 49.5 µM (inactive) and the GI50 [38] was 18.8 µM (inactive). For the same compound, the GI50 [39] was 15 µM (inactive), the GI50 [40] was 46.5 µM (inactive) and the GI50 [41] was 57 µM (inactive). For the same compound, the GI50 [42] was > 100 µM (inactive), the GI50 [43] was 58.7 µM (inactive) and the GI50 [44] was 75.5 µM (inactive). The GI50 [45] was > 100 µM (inactive), the GI50 [46] was 42.4 µM (inactive) and the GI50 [47] was 17.1 µM (inactive). For the same compound, the GI50 [48] was 40.8 µM (inactive), the GI50 [49] was 16.9 µM (inactive) and the GI50 [50] was 65.2 µM (inactive). For the same compound, the GI50 [51] was 44.2 µM (inactive), the GI50 [54] was 44.1 µM (inactive) and the GI50 [55] was 37.8 µM (inactive). For the same compound, the GI50 [56] was 57.8 µM (inactive).

Source: ChEMBL document CHEMBL1201862, “PubChem BioAssay data set” (2004)
